{"source": "paper PMC4070431", "about": "(Pulmonary pharmacology & therapeutics, 2012)", "key": {"[1]": {"conditions": "cited from earlier work"}, "[2]": {"target": "T1, human NPR-B (Homo sapiens, UniProt P20594)", "T1 sequence (P20594 23-1047)": "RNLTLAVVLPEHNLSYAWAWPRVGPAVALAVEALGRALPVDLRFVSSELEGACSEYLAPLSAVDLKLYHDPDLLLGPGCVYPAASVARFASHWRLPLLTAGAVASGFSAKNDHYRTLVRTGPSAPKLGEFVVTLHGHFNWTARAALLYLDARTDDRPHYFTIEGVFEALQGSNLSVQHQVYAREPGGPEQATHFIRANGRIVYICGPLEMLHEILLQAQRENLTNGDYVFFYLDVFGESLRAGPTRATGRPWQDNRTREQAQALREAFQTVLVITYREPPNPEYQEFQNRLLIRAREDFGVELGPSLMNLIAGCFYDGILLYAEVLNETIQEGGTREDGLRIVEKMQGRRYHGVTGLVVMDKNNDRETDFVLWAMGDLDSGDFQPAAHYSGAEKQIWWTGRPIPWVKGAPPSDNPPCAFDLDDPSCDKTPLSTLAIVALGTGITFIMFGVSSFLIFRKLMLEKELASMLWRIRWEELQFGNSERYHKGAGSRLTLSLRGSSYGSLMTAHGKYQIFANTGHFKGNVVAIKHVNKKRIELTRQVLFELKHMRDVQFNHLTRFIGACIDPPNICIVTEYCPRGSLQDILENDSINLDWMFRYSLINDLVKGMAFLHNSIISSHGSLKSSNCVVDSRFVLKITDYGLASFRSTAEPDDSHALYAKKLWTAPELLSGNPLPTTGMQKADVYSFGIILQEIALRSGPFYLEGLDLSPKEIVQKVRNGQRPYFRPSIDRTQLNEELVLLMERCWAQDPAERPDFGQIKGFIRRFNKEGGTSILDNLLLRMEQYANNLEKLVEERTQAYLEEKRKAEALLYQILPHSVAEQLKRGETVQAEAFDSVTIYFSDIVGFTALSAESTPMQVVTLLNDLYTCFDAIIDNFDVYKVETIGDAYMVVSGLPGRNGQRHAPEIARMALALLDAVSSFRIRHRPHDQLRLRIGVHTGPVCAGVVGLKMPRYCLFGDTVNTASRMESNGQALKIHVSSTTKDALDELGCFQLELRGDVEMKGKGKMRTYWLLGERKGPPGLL", "assay": "cGMP generation in HEK293 cells expressing receptor", "format": "cell-based", "conditions": "for Effect on cGMP generation in hNPR-B functional assay: concentrations up to 10 µM; for Emax, cGMP generation, hNPR-B: mean ± SEM"}, "[3]": {"system": "75 diverse molecular targets", "assay": "CEREP standard profiling screen", "format": "binding", "conditions": "1 µM"}, "[4]": {"target": "kappa opioid receptor", "assay": "CEREP profiling screen and follow-up Ki", "format": "binding", "conditions": "read-out: Ki, kappa; follow-up study"}, "[5]": {"target": "non-selective somatostatin receptor (sst)", "assay": "CEREP profiling screen and follow-up Ki", "format": "binding", "conditions": "read-out: Ki, sst; follow-up study"}, "[6]": {"system": "bronchoconstrictor response to aerosolized methacholine", "assay": "Methacholine-induced bronchoconstriction in anaesthetized guinea pigs", "format": "in vivo, guinea pig", "conditions": "for Maximum inhibition of methacholine bronchoconstrictor response: 1000 µg/kg i.t., 15-min pretreatment, n = 6, mean ± SEM; for Inhibition of methacholine bronchoconstriction at 60 min: i.t., 60-min pretreatment, all doses"}, "[7]": {"system": "mean arterial blood pressure and heart rate", "assay": "Cardiovascular parameters in anaesthetized guinea pigs", "conditions": "i.t.; PL-3994 1–1000 µg/kg, salbutamol 1000 µg/kg; n = 6"}, "[8]": {"system": "rat trachea", "assay": "Relaxation of carbachol-precontracted rat trachea", "conditions": "100 µM; carbachol 1 µM; n = 6; mean ± SEM"}}, "note": "Where “and” joins values, the source holds several entries; their conditions need not be identical. Equal values may be shown once. Read-outs that look alike come from different tables or passages of the source. Positions of bridges follow the written chain, without caps; N, C: chain ends. Non-standard residues stand in square brackets, D forms with d. Residues, ends and D or L forms follow the SMILES beside them. *: point of attachment. X1 = N=C(N)NCCC[C@H]1C(=O)N[C@H](C(N)=O)CN1*; dNle = CCCC[C@@H](N)C(=O)O; Heptanoyl = CCCCCCC(=O)*"}
{"smiles": "CC[C@H](C)[C@@H]1NC(=O)[C@H](CCCNC(=N)N)NC(=O)[C@H](CC(=O)O)NC(=O)[C@H](CC(C)C)NC(=O)[C@H](CCCCN)NC(=O)[C@H](CC(C)C)NC(=O)CNC(=O)[C@H](Cc2ccccc2)NC(=O)[C@@H](NC(=O)CNC(=O)[C@H](CCCCN)NC(=O)[C@H](CO)NC(=O)[C@H](CC(C)C)NC(=O)CN)CSSC[C@@H](C(=O)O)NC(=O)CNC(=O)[C@H](CC(C)C)NC(=O)CNC(=O)[C@H](CO)NC(=O)[C@H](CCSC)NC(=O)[C@H](CO)NC(=O)CNC1=O", "note": "[CNP, C-type natriuretic peptide]", "values": [{"measurement": "Human plasma half-life", "setting": "[1]; ref [10]", "value": "about 2 min"}]}
{"smiles": "CCCCCCC(=O)N[C@H]1CSSC[C@@H](C(=O)N[C@@H](Cc2ccc(O)cc2)C(=O)N2C[C@@H](C(N)=O)NC(=O)[C@@H]2CCCNC(=N)N)NC(=O)[C@H](CO)NC(=O)[C@H]([C@@H](C)CC)NC(=O)[C@H](CCCNC(=N)N)NC(=O)[C@H](CC(=O)O)NC(=O)[C@@H](CCCC)NC(=O)[C@H](CCCNC(=N)N)NC(=O)CNC(=O)[C@@H](C)NC(=O)[C@H](Cc2ccccc2)NC(=O)[C@H](Cc2c[nH]cn2)NC1=O", "note": "[PL-3994, Hept-cyclo(Cys-His-Phe-D-Ala-Gly-Arg-D-Nle-Asp-Arg-Ile-Ser-Cys)-Tyr-[Arg-mimetic]-NH2] (Heptanoyl-CHF[dA]GR[dNle]DRISCY-X1; disulfide 1-12)", "values": [{"measurement": "EC50, cGMP generation, hNPR-B", "setting": "[2]; HEK293 cells, 0.5 mM IBMX, 15 min, cGMP HTRF", "value": "Not calculable"}, {"measurement": "Effect on cGMP generation in hNPR-B functional assay", "setting": "[2]", "value": "without effect"}, {"measurement": "Effect against 75 diverse molecular targets", "setting": "[3]", "value": "without significant effect"}, {"measurement": "Ki", "setting": "[4]", "value": 880, "unit": "nM"}, {"measurement": "Ki", "setting": "[5]", "value": 4200, "unit": "nM"}, {"measurement": "Inhibition of methacholine bronchoconstriction at 120 min", "setting": "[6]; 10 µg/kg and 100 µg/kg i.t.", "value": "extended to 120 min post-administration, although it was reduced"}, {"measurement": "Inhibition of methacholine bronchoconstriction at 240 min", "setting": "[6]; 10 µg/kg and 100 µg/kg i.t., 240-min pretreatment", "value": "absent"}, {"measurement": "Maximum inhibition of methacholine bronchoconstrictor response", "setting": "[6]", "value": 70, "unit": "%"}, {"measurement": "Inhibition of methacholine bronchoconstriction at 60 min", "setting": "[6]", "value": "maintained"}, {"measurement": "Effect on heart rate compared to baseline", "setting": "[7]", "value": "no significant effect"}, {"measurement": "Effect on mean arterial blood pressure compared to baseline", "setting": "[7]", "value": "no significant effect"}]}
{"smiles": "CC[C@H](C)[C@@H]1NC(=O)[C@H](CCCNC(=N)N)NC(=O)[C@H](CC(=O)O)NC(=O)[C@H](CCSC)NC(=O)[C@H](CCCNC(=N)N)NC(=O)CNC(=O)CNC(=O)[C@H](Cc2ccccc2)NC(=O)[C@@H](NC(=O)[C@H](CO)NC(=O)[C@H](CO)NC(=O)[C@H](CCCNC(=N)N)NC(=O)[C@H](CCCNC(=N)N)NC(=O)[C@H](CC(C)C)NC(=O)[C@@H](N)CO)CSSC[C@@H](C(=O)N[C@@H](CC(N)=O)C(=O)N[C@@H](CO)C(=O)N[C@@H](Cc2ccccc2)C(=O)N[C@@H](CCCNC(=N)N)C(=O)N[C@@H](Cc2ccc(O)cc2)C(=O)O)NC(=O)CNC(=O)[C@H](CC(C)C)NC(=O)CNC(=O)[C@H](CO)NC(=O)[C@H](CCC(N)=O)NC(=O)[C@H](C)NC(=O)CNC1=O", "note": "[hANP, atrial natriuretic peptide]", "values": [{"measurement": "Emax, cGMP generation, hNPR-B", "setting": "[2]", "value": "6 ± 0.8", "unit": "% hCNP"}, {"measurement": "Human plasma half-life", "setting": "[1]; human, in vivo", "value": "about 2 min"}]}
{"smiles": "CC[C@H](C)[C@@H]1NC(=O)[C@H](CCCNC(=N)N)NC(=O)[C@H](CC(=O)O)NC(=O)[C@H](CCSC)NC(=O)[C@H](CCCCN)NC(=O)[C@H](CCCNC(=N)N)NC(=O)CNC(=O)[C@H](Cc2ccccc2)NC(=O)[C@@H](NC(=O)CNC(=O)[C@H](CO)NC(=O)CNC(=O)[C@H](CCC(N)=O)NC(=O)[C@@H](NC(=O)[C@H](CCSC)NC(=O)[C@H](CCCCN)NC(=O)[C@@H]2CCCN2C(=O)[C@@H](N)CO)C(C)C)CSSC[C@@H](C(=O)N[C@@H](CCCCN)C(=O)N[C@H](C(=O)N[C@@H](CC(C)C)C(=O)N[C@@H](CCCNC(=N)N)C(=O)N[C@@H](CCCNC(=N)N)C(=O)N[C@@H](Cc2c[nH]cn2)C(=O)O)C(C)C)NC(=O)CNC(=O)[C@H](CC(C)C)NC(=O)CNC(=O)[C@H](CO)NC(=O)[C@H](CO)NC(=O)[C@H](CO)NC(=O)[C@H](CO)NC1=O", "note": "[hBNP, brain natriuretic peptide]", "values": [{"measurement": "Effect on cGMP generation in hNPR-B functional assay", "setting": "[2]", "value": "no functional activity"}, {"measurement": "Emax, cGMP generation, hNPR-B", "setting": "[2]", "value": "9 ± 1", "unit": "% hCNP"}]}
{"smiles": "CC(C)(C)NCC(O)c1ccc(O)c(CO)c1", "note": "(stereo not drawn) [salbutamol]", "values": [{"measurement": "Relaxation of carbachol-precontracted rat trachea", "setting": "[8]", "value": "70.0 ± 10.4", "unit": "% relaxation"}, {"measurement": "Maximum inhibition of methacholine bronchoconstrictor response", "setting": "[6]", "value": "87 ± 2% and 87%"}, {"measurement": "Inhibition of methacholine bronchoconstriction at 60 min", "setting": "[6]", "value": "maintained"}, {"measurement": "Effect on heart rate compared to baseline", "setting": "[7]", "value": "no significant effect"}, {"measurement": "Effect on mean arterial blood pressure compared to baseline", "setting": "[7]", "value": "no significant effect"}]}
